Assay results: patent US11078197B2, “5-membered and bicyclic heterocyclic amides as inhibitors of rock” (BRISTOL-MYERS SQUIBB COMPANY, priority 2017, dated 2021)

Target: ROCK2 (Homo sapiens (Human), UniProt O75116)
Assay: ROCK2 assay (peptide phosphorylation, LABCHIP 3000 Reader)
Format: biochemical
Conditions: 5 μM ATP, 1.5 μM peptide substrate, dose-response
Procedure: After incubation, the reaction was terminated by the addition of EDTA and the phosphorylated and non-phosphorylated peptides separated using a LABCHIP®3000 Reader (Caliper Life Sciences). […] Compounds were tested in dose-response format, and the inhibition of kinase activity was calculated at each concentration of compound. […] Representative Examples were tested in the ROCK2 assay described above and found having ROCK2 inhibitory activity.

Sequence of ROCK2 (O75116 whole entry, species assumed): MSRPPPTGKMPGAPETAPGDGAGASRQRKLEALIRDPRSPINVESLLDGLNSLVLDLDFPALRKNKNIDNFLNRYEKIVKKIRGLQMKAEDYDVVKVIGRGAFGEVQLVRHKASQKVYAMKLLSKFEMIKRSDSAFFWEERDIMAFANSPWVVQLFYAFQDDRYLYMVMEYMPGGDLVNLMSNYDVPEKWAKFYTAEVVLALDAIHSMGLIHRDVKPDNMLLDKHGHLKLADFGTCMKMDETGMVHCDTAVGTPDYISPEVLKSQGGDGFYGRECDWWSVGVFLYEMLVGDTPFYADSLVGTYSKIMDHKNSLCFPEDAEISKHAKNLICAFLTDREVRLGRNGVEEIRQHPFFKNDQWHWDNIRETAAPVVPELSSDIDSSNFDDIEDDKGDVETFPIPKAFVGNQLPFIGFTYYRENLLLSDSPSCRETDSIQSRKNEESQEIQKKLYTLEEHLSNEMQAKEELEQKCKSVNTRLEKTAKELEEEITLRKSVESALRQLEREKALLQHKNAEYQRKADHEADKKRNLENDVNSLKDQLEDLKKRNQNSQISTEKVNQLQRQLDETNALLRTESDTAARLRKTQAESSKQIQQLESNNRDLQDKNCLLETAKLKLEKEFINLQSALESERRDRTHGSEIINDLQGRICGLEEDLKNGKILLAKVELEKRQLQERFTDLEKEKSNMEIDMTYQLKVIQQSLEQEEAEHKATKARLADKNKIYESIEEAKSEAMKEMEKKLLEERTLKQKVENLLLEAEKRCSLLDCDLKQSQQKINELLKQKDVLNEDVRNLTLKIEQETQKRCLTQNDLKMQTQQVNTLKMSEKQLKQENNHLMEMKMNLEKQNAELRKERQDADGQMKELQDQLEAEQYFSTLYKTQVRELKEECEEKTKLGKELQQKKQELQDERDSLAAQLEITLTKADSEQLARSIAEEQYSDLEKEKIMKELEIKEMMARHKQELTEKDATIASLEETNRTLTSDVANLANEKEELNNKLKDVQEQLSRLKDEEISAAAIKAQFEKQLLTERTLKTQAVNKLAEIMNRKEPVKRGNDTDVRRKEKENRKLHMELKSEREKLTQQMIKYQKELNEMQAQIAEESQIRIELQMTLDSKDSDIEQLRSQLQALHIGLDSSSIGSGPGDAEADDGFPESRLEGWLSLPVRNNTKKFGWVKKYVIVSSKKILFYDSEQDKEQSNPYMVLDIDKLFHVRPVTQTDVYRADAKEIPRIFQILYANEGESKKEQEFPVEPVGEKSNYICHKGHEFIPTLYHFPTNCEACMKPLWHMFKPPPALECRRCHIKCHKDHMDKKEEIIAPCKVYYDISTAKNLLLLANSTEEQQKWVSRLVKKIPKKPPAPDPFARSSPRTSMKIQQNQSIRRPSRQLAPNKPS

Structure (SMILES)	IC50 [µM]
CC(C)(O)COc1ccc2c(C(=O)N[C@H]3C[C@]4(C3)C[C@H](Oc3nn(CCCN)cc3C(N)=O)C4)cnn2c1C1CC1 (stereo partly drawn) [Example 27, 1-(3-aminopropyl)-3-({(aR)-6-[7-cyclopropyl-6-(2-hydroxy-2-methylpropoxy)pyrazolo [1,5-a]pyridine-3-amido]spiro[3.3]heptan-2-yl}oxy)-1H-pyrazole-4-carboxamide]	0.0138
CC(C)(O)COc1ccc2c(C(=O)N[C@H]3CC4(C3)C[C@H](Oc3c(C(N)=O)cnn3CCCN)C4)cnn2c1C1CC1 (stereo partly drawn) [Example 28, 1-(3-aminopropyl)-5-({(aR)-6-[7-cyclopropyl-6-(2-hydroxy-2-methylpropoxy)pyrazolo [1,5-a]pyridine-3-amido]spiro[3.3]heptan-2-yl}oxy)-1H-pyrazole-4-carboxamide]	0.551
CC(C)(O)COc1ccc2c(C(=O)N[C@H]3C[C@]4(C3)C[C@H](Oc3nn(C(F)F)cc3C(N)=O)C4)cnn2c1C1CC1 (stereo partly drawn) [Example 30, 3-({(aR)-6-[7-cyclopropyl-6-(2-hydroxy-2-methylpropoxy)pyrazolo [1,5-a]pyridine-3-aimdo]spiro[3.3]heptan-2-yl}oxy)-1-(difluoromethyl)-1H-pyrazole-4-carboxamide]	0.0077
CC(C)(O)COc1ccc2c(C(=O)N[C@H]3C[C@]4(C3)C[C@H](Oc3nn(-c5ccccc5C#N)cc3C(N)=O)C4)cnn2c1C1CC1 (stereo partly drawn) [Example 31, 1-(2-cyanophenyl)-3-({(aR)-6-[7-cyclopropyl-6-(2-hydroxy-2-methylpropoxy)pyrazolo [1,5-a]pyridine-3-amido]spiro[3.3]heptan-2-yl}oxy)-1H-pyrazole-4-carboxamide]	0.0733
Cn1cc(C(N)=O)c(O[C@H]2C[C@@]3(C[C@H](NC(=O)c4nn(C(F)F)c5cc(OCC(C)(C)O)ccc45)C3)C2)n1 (stereo partly drawn) [Example 36, N-{(aR)-6-[(4-carbamoyl-1-methyl-1H-pyrazol-3-yl)oxy]spiro[3.3]heptan-2-yl}-1-(difluoromethyl)-6-(2-hydroxy-2-methylpropoxy)-1H-indazole-3-carboxamide]	0.0224
Cc1c(C(N)=O)c(O[C@H]2C[C@@]3(C[C@H](NC(=O)c4cnn5c(C6CC6)c(OCC(C)(C)O)ccc45)C3)C2)nn1C (stereo partly drawn) [Example 37, 3-({(aR)-6-[7-cyclopropyl-6-(2-hydroxy-2-methylpropoxy)pyrazolo[1,5-a]pyridine-3-amido]spiro[3.3]heptan-2-yl}oxy)-1,5-dimethyl-1H-pyrazole-4-carboxamide]	0.259
Cc1c(C(=O)N[C@H]2C[C@]3(C2)C[C@H](Oc2nn(-c4ccccc4)cc2C(N)=O)C3)cnn1-c1ccc(C#N)cc1 (stereo partly drawn) [Example 38, 3-({(aR)-6-[1-(4-cyanophenyl)-5-methyl-1H-pyrazole-4-amido]spiro[3.3]heptan-2-yl}oxy)-1-phenyl-1H-pyrazole-4-carboxamide]	0.426
CC(C)(O)COc1ccc2c(C(=O)N[C@H]3C[C@]4(C3)C[C@H](Oc3c(C(N)=O)cnn3C(F)F)C4)cnn2c1C1CC1 (stereo partly drawn) [Example 39, 5-({(aR)-6-[7-cyclopropyl-6-(2-hydroxy-2-methylpropoxy)pyrazolo [1,5-a]pyridine-3-amido]spiro[3.3]heptan-2-yl}oxy)-1-(difluoromethyl)-1H-pyrazole-4-carboxamide]	2.4
NC(=O)c1cn(-c2ccccc2)nc1O[C@H]1C[C@@]2(C[C@H](NC(=O)c3cnn4cc(OCCC(F)(F)F)ccc34)C2)C1 (stereo partly drawn) [Example 40, 1-phenyl-3-{[(aR)-6-[6-(3,3,3-trifluoropropoxy)pyrazolo[1,5-a]pyridine-3-amido]spiro[3.3]heptan-2-yl]oxy}-1H-pyrazole-4-carboxamide]	0.136
N#Cc1cc(C(=O)N[C@H]2C[C@]3(C2)C[C@H](Oc2nn(-c4ccccc4)cc2C(N)=O)C3)cc(-c2cnn(C(F)F)c2)c1 (stereo partly drawn) [Example 41, 1-phenyl-3-{[(aR)-6-{3-cyano-5-[1-(difluoromethyl)-1H-pyrazol-4-yl]benzamido}spiro [3.3]heptan-2-yl]oxy}-1H-pyrazole-4-carboxamide]	0.0556
CC(C)(O)COc1ccc2c(C(=O)N[C@H]3C[C@]4(C3)C[C@H](Oc3nn(-c5ccccc5)cc3C(N)=O)C4)nn(C(F)F)c2c1 (stereo partly drawn) [Example 42, 1-(difluoromethyl)-6-(2-hydroxy-2-methylpropoxy)-N-[(aR)-6-[(4-carbamoyl-1-phenyl-1H-pyrazol-3-yl)oxy]spiro[3.3]heptan-2-yl]-1H-indazole-3-carboxamide]	0.0137
Cc1nc(O[C@H]2C[C@@]3(C[C@H](NC(=O)c4cnn(-c5ccc(C#N)cc5)c4C)C3)C2)c(C(N)=O)s1 (stereo partly drawn) [Example 43, 2-methyl-4-{[(aR)-6-[1-(4-cyanophenyl)-5-methyl-1H-pyrazole-4-amido]spiro[3.3]heptan-2-yl]oxy}-1,3-thiazole-5-carboxamide]	0.119
Cc1c(C(=O)N[C@H]2C[C@]3(C2)C[C@H](Oc2nc(C4CC4)sc2C(N)=O)C3)cnn1-c1ccc(C#N)cc1 (stereo partly drawn) [Example 44, 2-cyclopropyl-4-{[(aR)-6-[1-(4-cyanophenyl)-5-methyl-1H-pyrazole-4-amido]spiro[3.3]heptan-2-yl]oxy}-1,3-thiazole-5-carboxamide]	0.0252
Cc1c(C(=O)N[C@H]2C[C@]3(C2)C[C@H](Oc2nc(C4CC4)sc2C(N)=O)C3)cnn1-c1ccc(Cl)cc1 (stereo partly drawn) [Example 45, 2-cyclopropyl-4-{[(aR)-6-[1-(4-chlorophenyl)-5-methyl-1H-pyrazole-4-amido]spiro[3.3]heptan-2-yl]oxy}-1,3-thiazole-5-carboxamide]	0.025
Cc1c(C(=O)N[C@H]2C[C@]3(C2)C[C@H](Oc2nn(-c4ccccc4)cc2C(N)=O)C3)cnn1-c1ccc(Cl)cc1 (stereo partly drawn) [Example 49, 1-phenyl-3-{[(aR)-6-[1-(4-chlorophenyl)-5-methyl-1H-pyrazole-4-amido]spiro[3.3]heptan-2-yl]oxy}-1H-pyrazole-4-carboxainide]	0.45
NC(=O)c1cn(C(F)F)nc1O[C@H]1C[C@@]2(C[C@H](NC(=O)c3cnn4cc(OCC(O)(C(F)(F)F)C(F)(F)F)ccc34)C2)C1 (stereo partly drawn) [Example 52, 1-(difluoromethyl)-3-{[(aR)-6-{6-[3,3,3-trifluoro-2-hydxoxy-2-(trifluoromethyl)propoxy]pyrazolo [1,5-a]pyridine-3-amido}spiro[3.3]heptan-2-yl]oxy}-1H-pyrazole-4-carboxamide]	0.0339

Other lines, results leading:

IC50 [µM]	Structure (SMILES)
0.254	CC(C)(O)COc1ccc2c(C(=O)N[C@H]3C[C@]4(C3)C[C@H](Oc3nn(CCN)cc3C(N)=O)C4)cnn2c1C1CC1 (stereo partly drawn) [Example 29, 1-(2-aminoethyl)-3-({(aR)-6-[7-cyclopropyl-6-(2-hydroxy-2-methylpropoxy)pyrazolo [1,5-a]pyridine-3-amido]spiro[3.3]heptan-2-yl}oxy)-1H-pyrazole-4-carboxamide]
0.0299	Cn1cc(C(N)=O)c(O[C@H]2C[C@@]3(C[C@H](NC(=O)c4cnn5cc(N6CCOCC6)ccc45)C3)C2)n1 (stereo partly drawn) [Example 32, 1-methyl-3-({(aR)-6-[6-(morpholin-4-yl)pyrazolo[1,5-a]pyridine-3-amido]spiro[3.3]heptan-2-yl}oxy)-1H-pyrazole-4-carboxamide]
0.347	Cn1cc(C(N)=O)c(O[C@H]2C[C@@]3(C[C@H](NC(=O)c4cnn5cc(N6CC7(COC7)C6)ccc45)C3)C2)n1 (stereo partly drawn) [Example 33, 1-methyl-3-{[(aR)-6-(6-{2-oxa-6-azaspiro[3.3]heptan-6-yl}pyrazolo[1,5-a]pyridine-3-amido)spiro[3.3]heptan-2-yl]oxy}-1H-pyrazole-4-carboxamide]
0.0172	Cc1nc(O[C@H]2C[C@@]3(C[C@H](NC(=O)c4cnn5cc(N6CC(CO)(CCl)C6)ccc45)C3)C2)c(C(N)=O)s1 (stereo partly drawn) [Example 34, 4-[((aR)-6-{6-[3-(chloromethyl)-3-(hydroxymethyl)azetidin-1-yl]pyrazolo[1,5-a]pyridine-3-amido}spiro[3.3]heptan-2-yl)oxy]-2-methyl-1,3-thiazole-5-carboxamide]
0.202	CN1CCN(c2ccc3c(C(=O)N[C@H]4C[C@]5(C4)C[C@H](Oc4nn(C)cc4C(N)=O)C5)cnn3c2)CC1 (stereo partly drawn) [Example 35, 1-methyl-3-({(aR)-6-[6-(4-methylpiperazin-1-yl)pyrazolo[1,5-a]pyridine-3-amido]spiro[3.3]heptan-2-yl}oxy)-1H-pyrazole-4-carboxamide]
0.359	Cc1c(C(=O)N[C@H]2C[C@]3(C2)C[C@H](Oc2nn(C)cc2C(N)=O)C3)cnn1-c1ccc(C#N)cc1 (stereo partly drawn) [Example 46, 1-(4-cyanophenyl)-5-methyl-N-[(aR)-6-[(4-carbamoyl-1-methyl-1H-pyrazol-3-yl)oxy]spiro[3.3]heptan-2-yl]-1H-pyrazole-4-carboxamide]
0.113	Cc1c(C(=O)N[C@H]2C[C@]3(C2)C[C@H](Oc2nn(C)cc2C(N)=O)C3)cnn1-c1ccc(Cl)cc1 (stereo partly drawn) [Example 47, 1-(4-chlorophenyl)-5-methyl-N-[(aR)-6-[(4-carbamoyl-1-methyl-1H-pyrazol-3-yl)oxy]spiro[3.3]heptan-2-yl]-1H-pyrazole-4-carboxamide]
0.685	COc1ccc(-n2ncc(C(=O)N[C@H]3C[C@]4(C3)C[C@H](Oc3nn(C)cc3C(N)=O)C4)c2C)cn1 (stereo partly drawn) [Example 48, 1-(6-methoxypyridin-3-yl)-5-methyl-N-[(aR)-6-[(4-carbamoyl-1-methyl-1H-pyrazol-3-yl)oxy]spiro[3.3]heptan-2-yl]-1H-pyrazole-4-carboxamide]
0.322	COc1ccc(-n2ncc(C(=O)N[C@H]3C[C@]4(C3)C[C@H](Oc3nn(C5CC5)cc3C(N)=O)C4)c2C)cn1 (stereo partly drawn) [Example 50, 1-cyclopropyl-3-{[(aR)-6-[1-(6-methoxypyridin-3-yl)-5-methyl-1H-pyrazole-4-amido]spiro[3.3]heptan-2-yl]oxy}-1H-pyrazole-4-carboxamide]
0.0448	Cc1c(C(=O)N[C@H]2C[C@]3(C2)C[C@H](Oc2nn(C4CC4)cc2C(N)=O)C3)cnn1-c1ccc(Cl)cc1 (stereo partly drawn) [Example 51, 1-cyclopropyl-3-{[(aR)-6-[1-(4-chlorophenyl)-5-methyl-1H-pyrazole-4-amido]spiro[3.3]heptan-2-yl]oxy}-1H-pyrazole-4-carboxamide]
